Test results from patent US20260317324A1, “BIFUNCTIONAL COMPOUNDS FOR DEGRADING BRAF VIA UBIQUITIN PROTEOSOME PATHWAY” (Nurix Therapeutics, Inc., priority 2023, published 2026).

Tests used:
Assay type in all cases: cell-based
BRAF D594G = biological target: T1, BRAF D594G (Homo sapiens, UniProt P15056, D594G); assay: BRAF HiBiT degradation assay, C-terminal HiBiT-tagged BRAF D594G overexpressed in HCT-116 BRAF−/− cells (clone 63), Nano-Glo HiBiT Lytic assay; settings: BRAF D594G; for DC50: DC50 at 50%: fitted conc. at Y=50; for Dmax: HCT-116, percentage protein degraded at maximal compound effect relative to DMSO
T1 construct: Horizon Discovery (HCT-116 BRAF−/− cells); host or cells: HCT-116 BRAF−/− cells, clone 63, lentiviral transduction
T1 sequence (P15056 whole entry D594G): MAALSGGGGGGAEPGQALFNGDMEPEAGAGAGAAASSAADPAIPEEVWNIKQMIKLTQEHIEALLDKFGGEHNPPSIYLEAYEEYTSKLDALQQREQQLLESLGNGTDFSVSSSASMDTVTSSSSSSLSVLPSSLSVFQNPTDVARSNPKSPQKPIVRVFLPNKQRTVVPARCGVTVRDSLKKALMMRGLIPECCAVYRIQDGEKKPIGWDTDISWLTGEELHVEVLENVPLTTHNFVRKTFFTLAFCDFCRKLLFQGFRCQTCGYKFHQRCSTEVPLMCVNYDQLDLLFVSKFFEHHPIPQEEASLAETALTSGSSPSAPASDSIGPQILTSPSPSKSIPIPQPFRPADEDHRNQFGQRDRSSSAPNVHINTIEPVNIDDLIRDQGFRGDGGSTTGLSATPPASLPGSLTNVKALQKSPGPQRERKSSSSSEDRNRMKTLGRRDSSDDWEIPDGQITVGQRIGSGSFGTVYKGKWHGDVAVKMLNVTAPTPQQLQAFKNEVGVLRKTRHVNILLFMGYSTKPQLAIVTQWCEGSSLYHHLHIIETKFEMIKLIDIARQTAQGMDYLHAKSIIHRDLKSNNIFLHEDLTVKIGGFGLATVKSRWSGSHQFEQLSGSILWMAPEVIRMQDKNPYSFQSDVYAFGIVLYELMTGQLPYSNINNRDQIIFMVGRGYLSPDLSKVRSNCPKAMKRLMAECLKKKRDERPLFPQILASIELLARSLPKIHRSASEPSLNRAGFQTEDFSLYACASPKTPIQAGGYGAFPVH
Summary of the method: (§1)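 Degradation was read by Nano-Glo HiBiT lytic luminescence, normalised to DMSO-treated tagged cells with wildtype HCT-116 as background. Test cells were lentiviral clones of HCT-116 BRAF−/− carrying HiBiT-tagged mutants in RPMI/10% FBS, given compound at 0.01 nM–1 μM in duplicate. Outputs are the curve-fitted concentration giving 50% degradation and the maximal observed degradation.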

BRAF G466V = biological target: T2, BRAF G466V (Homo sapiens, UniProt P15056, G466V); assay: BRAF HiBiT degradation assay, C-terminal HiBiT-tagged BRAF G466V overexpressed in HCT-116 BRAF−/− cells (clone 8), Nano-Glo HiBiT Lytic assay; settings: BRAF G466V; for DC50: DC50 at 50%: fitted conc. at Y=50; for Dmax: HCT-116, percentage protein degraded at maximal compound effect relative to DMSO
T2 construct: Horizon Discovery (HCT-116 BRAF−/− cells); host or cells: HCT-116 BRAF−/− cells, clone 8, lentiviral transduction
T2 sequence (P15056 whole entry G466V): as the sequence (P15056 whole entry D594G) above, with G466V, G594D counted along it
Summary of the method: as §1

BRAF G469A = biological target: T3, BRAF G469A (Homo sapiens, UniProt P15056, G469A); assay: BRAF HiBiT degradation assay, C-terminal HiBiT-tagged BRAF G469A overexpressed in HCT-116 BRAF−/− cells (clone 34), Nano-Glo HiBiT Lytic assay; settings: Class 2, BRAF G469A; for DC50: DC50 at 50%: fitted conc. at Y=50; for Dmax: HCT-116, percentage protein degraded at maximal compound effect relative to DMSO
T3 construct: Horizon Discovery (HCT-116 BRAF−/− cells); host or cells: HCT-116 BRAF−/− cells, clone 34, lentiviral transduction
T3 sequence (P15056 whole entry G469A): as the sequence (P15056 whole entry D594G) above, with G469A, G594D counted along it
Summary of the method: as §1

BRAF V600E = biological target: T4, BRAF V600E (Homo sapiens, UniProt P15056, V600E); assay: BRAF HiBiT degradation assay, C-terminal HiBiT-tagged BRAF V600E A375 cells (clone 1F10), Nano-Glo HiBiT Lytic assay; settings: A375 (BRAF V600E); for DC50: DC50 at 50%: fitted conc. at Y=50; for Dmax: A-375, percentage protein degraded at maximal compound effect relative to DMSO
T4 construct: endogenous C-terminal HiBiT fusion tag on BRAF V600E allele; endogenous in cells; host or cells: A375 clone 1F10 (CRISPR-Cas9 knock-in of the HiBiT tag; parental A375 from ATCC)
T4 sequence (P15056 whole entry V600E, the tested form may be a part): as the sequence (P15056 whole entry D594G) above, with G594D, V600E counted along it
Summary of the method: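 Luminescence from the Nano-Glo HiBiT lytic read-out gave % BRAF V600E remaining versus DMSO-treated tagged cells, with untagged A375 as background. Clone 1F10 cells (10,000/well, 24 h pre-culture) received compound at 1 μM–0.01 nM in half-log steps, 0.2% DMSO; curve fits gave DC50 at Y=50, plus observed Dmax.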

| SMILES | DC50 (BRAF D594G) | Dmax (BRAF D594G) | DC50 (BRAF G466V) | Dmax (BRAF G466V) | DC50 (BRAF G469A) | Dmax (BRAF G469A) | DC50 (BRAF V600E) | Dmax (BRAF V600E) |
| --- | --- | --- | --- | --- | --- | --- | --- | --- |
| CCCS(=O)(=O)Nc1cccc(-c2nc(C3CCN(C(=O)C4CCN(CC5CCN(c6cccc7c6n(C)c(=O)n7C6CCC(=O)NC6=O)CC5)CC4)CC3)sc2-c2ccnc(N)n2)c1F (racemic) [Compound 195, Rac-N-{3-[5-(2-aminopyrimidin-4-yl)-2-(1-{1-[(1-{1-[(3R)-2,6-dioxopiperidin-3-yl]-3-methyl-2-oxo-2,3-dihydro-1H-1,3-benzodiazol-4-yl}piperidin-4-yl)methyl]piperidine-4-carbonyl}piperidin-4-yl)-1,3-thiazol-4-yl]-2-fluorophenyl}propane-1-sulfonamide] | < 0.01 µM | 30 to 70% | < 0.01 µM | 30 to 70% | < 0.01 µM | 30 to 70% | < 0.01 µM | > 70% |
| CCCS(=O)(=O)Nc1cccc(-c2nc(C3CCN(C(=O)C4(C)CCN(C(=O)C5CCN(c6ccc(C7CCC(=O)NC7=O)cn6)CC5)CC4)CC3)sc2-c2ccnc(N)n2)c1F (racemic) [Compound 197, Rac-N-{3-[5-(2-aminopyrimidin-4-yl)-2-{1-[1-(1-{5-[(3R)-2,6-dioxopiperidin-3-yl]pyridin-2-yl}piperidine-4-carbonyl)-4-methylpiperidine-4-carbonyl]piperidin-4-yl}-1,3-thiazol-4-yl]-2-fluorophenyl}propane-1-sulfonamide] | < 0.01 µM | 30 to 70% | < 0.01 µM | 30 to 70% | 0.01 to 0.05 µM | 30 to 70% | < 0.01 µM | > 70% |
| CCCS(=O)(=O)Nc1cccc(-c2nc(C3CCN(C(=O)C4CCN(C(=O)C5CCN(c6ccc(C7CCC(=O)NC7=O)cn6)CC5)CC4)CC3)sc2-c2ccnc(NC3CC3)n2)c1F (racemic) [Compound 198, Rac-N-(3-{5-[2-(cyclopropylamino)pyrimidin-4-yl]-2-{1-[1-(1-{5-[(3R)-2,6-dioxopiperidin-3-yl]pyridin-2-yl}piperidine-4-carbonyl)piperidine-4-carbonyl]piperidin-4-yl}-1,3-thiazol-4-yl}-2-fluorophenyl)propane-1-sulfonamide] | < 0.01 µM | 30 to 70% | > 0.5 µM | 30 to 70% | > 0.5 µM | 30 to 70% | < 0.01 µM | > 70% |
| CCCS(=O)(=O)Nc1cccc(-c2nc(C3CCN(C(=O)C4CCN(C(=O)CC5CCN(c6ccc(C7CCC(=O)NC7=O)cn6)CC5)CC4)CC3)sc2-c2ccnc(N)n2)c1F (racemic) [Compound 203, Rac-N-{3-[5-(2-aminopyrimidin-4-yl)-2-(1-{1-[2-(1-{5-[(3R)-2,6-dioxopiperidin-3-yl]pyridin-2-yl}piperidin-4-yl)acetyl]piperidine-4-carbonyl}piperidin-4-yl)-1,3-thiazol-4-yl]-2-fluorophenyl}propane-1-sulfonamide] | < 0.01 µM | 30 to 70% | < 0.01 µM | > 70% | > 0.5 µM | 30 to 70% | < 0.01 µM | > 70% |
| CCCS(=O)(=O)Nc1cccc(-c2nc(CCC3CCN(C(=O)C4CCN(C(=O)C5CCN(c6ccc(C7CCC(=O)NC7=O)cn6)CC5)CC4)CC3)sc2-c2ccnc(N)n2)c1F (racemic) [Compound 205, Rac-N-{3-[5-(2-aminopyrimidin-4-yl)-2-(2-{1-[1-(1-{5-[(3R)-2,6-dioxopiperidin-3-yl]pyridin-2-yl}piperidine-4-carbonyl)piperidine-4-carbonyl]piperidin-4-yl}ethyl)-1,3-thiazol-4-yl]-2-fluorophenyl}propane-1-sulfonamide] | > 0.5 µM | 30 to 70% | > 0.5 µM | 30 to 70% | > 0.5 µM | 30 to 70% | < 0.01 µM | > 70% |
| CCCS(=O)(=O)Nc1cccc(-c2nc(C3CCN(C(=O)C4CCN(C(=O)C5CCN(c6ccc(C7CCC(=O)NC7=O)cn6)CC5)CC4)CC3)sc2-c2ccnc(NC(C)C)n2)c1F (racemic) [Compound 206, Rac-N-[3-(2-{1-[1-(1-{5-[(3R)-2,6-dioxopiperidin-3-yl]pyridin-2-yl}piperidine-4-carbonyl)piperidine-4-carbonyl]piperidin-4-yl}-5-{2-[(propan-2-yl)amino]pyrimidin-4-yl}-1,3-thiazol-4-yl)-2-fluorophenyl]propane-1-sulfonamide] | < 0.01 µM | 30 to 70% | 0.01 to 0.05 µM | 30 to 70% | > 0.5 µM | 30 to 70% | < 0.01 µM | > 70% |
| CCCS(=O)(=O)Nc1cccc(-c2nc(-c3ccc(C4CCN(C(=O)CC5CCN(c6ccc(C7CCC(=O)NC7=O)cn6)CC5)CC4)cc3)sc2-c2ccnc(N)n2)c1F (racemic) [Compound 207, Rac-N-{3-[5-(2-aminopyrimidin-4-yl)-2-(4-{1-[2-(1-{5-[(3R)-2,6-dioxopiperidin-3-yl]pyridin-2-yl}piperidin-4-yl)acetyl]piperidin-4-yl}phenyl)-1,3-thiazol-4-yl]-2-fluorophenyl}propane-1-sulfonamide] | > 0.5 µM | 30 to 70% | > 0.5 µM | 30 to 70% | > 0.5 µM | 30 to 70% | 0.01 to 0.05 µM | > 70% |
| CCCS(=O)(=O)Nc1cccc(-c2nc(-c3ccc(C4CCN(CC5CCN(c6ccc(C7CCC(=O)NC7=O)cn6)CC5)CC4)cc3)sc2-c2ccnc(N)n2)c1F (racemic) [Compound 208, Rac-N-{3-[5-(2-aminopyrimidin-4-yl)-2-(4-{1-[(1-{5-[(3R)-2,6-dioxopiperidin-3-yl]pyridin-2-yl}piperidin-4-yl)methyl]piperidin-4-yl}phenyl)-1,3-thiazol-4-yl]-2-fluorophenyl}propane-1-sulfonamide] | > 0.5 µM | 30 to 70% | > 0.5 µM | 30 to 70% | > 0.5 µM | 30 to 70% | 0.01 to 0.05 µM | > 70% |
| CCN(C)S(=O)(=O)Nc1cccc(-c2nc(C3CCN(C(=O)C4CCN(C(=O)C5CCN(c6ccc(C7CCC(=O)NC7=O)cn6)CC5)CC4)CC3)sc2-c2ccnc(N)n2)c1F (racemic) [Compound 209, Rac-(3S)-3-{6-[4-(4-{4-[5-(2-aminopyrimidin-4-yl)-4-(3-{[ethyl(methyl)sulfamoyl]amino}-2-fluorophenyl)-1,3-thiazol-2-yl]piperidine-1-carbonyl}piperidine-1-carbonyl)piperidin-1-yl]pyridin-3-yl}piperidine-2,6-dione] | < 0.01 µM | > 70% | < 0.01 µM | > 70% | 0.01 to 0.05 µM | 30 to 70% | < 0.01 µM | > 70% |
| CCCS(=O)(=O)Nc1cccc(-c2nc(C3CCN(C(=O)C4CCN(C(=O)C5CCN(c6ccc(C7CCC(=O)NC7=O)cn6)CC5)CC4)CC3)sc2-c2ccncc2)c1F (racemic) [Compound 210, Rac-N-[3-(2-{1-[1-(1-{5-[(3R)-2,6-dioxopiperidin-3-yl]pyridin-2-yl}piperidine-4-carbonyl)piperidine-4-carbonyl]piperidin-4-yl}-5-(pyridin-4-yl)-1,3-thiazol-4-yl)-2-fluorophenyl]propane-1-sulfonamide] | < 0.01 µM | 30 to 70% | < 0.01 µM | 30 to 70% | 0.05 to 0.5 µM | 30 to 70% | < 0.01 µM | > 70% |
| CCCS(=O)(=O)Nc1cccc(-c2nc(C3CCN(C(=O)C4CCN(CC5CCN(c6ccc(C7CCC(=O)NC7=O)cn6)CC5)CC4)CC3)sc2-c2ccncc2)c1F (racemic) [Compound 211, Rac-N-{3-[2-(1-{1-[(1-{5-[(3R)-2,6-dioxopiperidin-3-yl]pyridin-2-yl}piperidin-4-yl)methyl]piperidine-4-carbonyl}piperidin-4-yl)-5-(pyridin-4-yl)-1,3-thiazol-4-yl]-2-fluorophenyl}propane-1-sulfonamide] | > 0.5 µM | 30 to 70% | > 0.5 µM | 30 to 70% | > 0.5 µM | < 30% | 0.05 to 0.5 µM | > 70% |
